Measured values: patent publication US9221827B2, “Antimicrobial compounds and methods of making and using the same” (Melinta Therapeutics, Inc., priority 2011, dated 2015)

System: Escherichia coli strain ATCC25922
Assay: standard microdilution assay to determine minimum inhibitory concentrations (MICs)
Format: cell-based
Outline: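 MICs come from CLSI-guided microdilution in 100 μl, run alongside reference-strain performance standards. Values appear as "+" or "−" relative to 16 micrograms/ml, with "N/A" marking missing data.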

[1] = Escherichia coli strain ATCC25922, microdilution
[2] = Escherichia coli strain ATCC25922, standard microdilution assay

| SMILES | E. coli ATCC25922 MIC [1] | E. coli ATCC25922 MIC [2] |
| --- | --- | --- |
| C[C@H](NCCCNC(=N)N)c1ccc(-n2cc3cc(-c4cc(CCC5(CN)CC5)cc(Cl)c4F)[nH]c3nc2=O)cc1 [Compound 320] | + (a “+” indicates that the compound has an MIC value of 16 micrograms/ml or less) |  |
| C[C@H](N)CCCc1cc(Cl)c(OC(F)(F)F)c(-c2cc3cn(-c4ccc(CNCCCNC(=N)N)cc4)c(=O)nc3[nH]2)c1 [Compound 321] | + (a “+” indicates that the compound has an MIC value of 16 micrograms/ml or less) |  |
| C[C@H](N)COCc1cc(-c2cc3cn(-c4ccc([C@H](C)NCCCNC(=N)N)cc4)c(=O)nc3[nH]2)cc(C(F)(F)F)c1 [Compound 322] | + (a “+” indicates that the compound has an MIC value of 16 micrograms/ml or less) |  |
| C[C@H](N)COCc1cc(-c2cc3cn(-c4ccc(CNCCCNC(=N)N)cc4)c(=O)nc3[nH]2)cc(C(F)(F)F)c1 [Compound 323] | + (a “+” indicates that the compound has an MIC value of 16 micrograms/ml or less) |  |
| N=C(N)NCCCNCc1ccc(-n2cc3cc(-c4cc(CC5CC(N)C5)cc(C(F)(F)F)c4)[nH]c3nc2=O)cc1 (stereo not shown) [Compound 324] | + (a “+” indicates that the compound has an MIC value of 16 micrograms/ml or less) |  |
| C[C@H](NCCCNC(=N)N)c1ccc(-n2cc3cc(-c4cc(CC5CC(N)C5)cc(C(F)(F)F)c4)[nH]c3nc2=O)cc1 (stereo partly shown) [Compound 325] | + (a “+” indicates that the compound has an MIC value of 16 micrograms/ml or less) |  |
| C[C@@H](CN)OCc1cc(SC(F)(F)F)cc(-c2cc3cn(-c4ccc(CNCCCNC(=N)N)cc4)c(=O)nc3[nH]2)c1 [Compound 326] | + (a “+” indicates that the compound has an MIC value of 16 micrograms/ml or less) |  |
| C[C@H](NCCCNC(=N)N)c1ccc(-n2cc3cc(-c4cc(CO[C@@H](C)CN)cc(SC(F)(F)F)c4)[nH]c3nc2=O)cc1 [Compound 327] | + (a “+” indicates that the compound has an MIC value of 16 micrograms/ml or less) |  |
| N=C(N)NCCCNCc1ccc(-n2cc3cc(-c4cc(CC5CC(N)C5)cc(Cl)c4F)[nH]c3nc2=O)cc1 (stereo not shown) [Compound 333] |  | + (a “+” indicates that the compound has an MIC value of 16 micrograms/ml or less) |
| C[C@H](CCNC(=N)N)NCc1ccc(-n2cc3cc(-c4cc(CC5CC(N)C5)cc(Cl)c4F)[nH]c3nc2=O)cc1 (stereo partly shown) [Compound 334] |  | + (a “+” indicates that the compound has an MIC value of 16 micrograms/ml or less) |
| CC(C)(N)CCCc1cc(SC(F)(F)F)cc(-c2cc3cn(-c4ccc(CN)cc4)c(=O)nc3[nH]2)c1 [Compound 335] |  | + (a “+” indicates that the compound has an MIC value of 16 micrograms/ml or less) |
| CC(CN)SCc1cc(SC(F)(F)F)cc(-c2cc3cn(-c4ccc(CNCCCNC(=N)N)cc4)c(=O)nc3[nH]2)c1 (stereo not shown) [Compound 336] |  | + (a “+” indicates that the compound has an MIC value of 16 micrograms/ml or less) |
| CC(CN)SCc1cc(SC(F)(F)F)cc(-c2cc3cn(-c4ccc(C(C)NCCCNC(=N)N)cc4)c(=O)nc3[nH]2)c1 (stereo not shown) [Compound 337] |  | + (a “+” indicates that the compound has an MIC value of 16 micrograms/ml or less) |
| CN(CCCNC(=N)N)Cc1ccc(-n2cc3cc(-c4cc(CCCCN)cc(C(F)(F)F)c4)[nH]c3nc2=O)cc1 [Compound 338] |  | + (a “+” indicates that the compound has an MIC value of 16 micrograms/ml or less) |
| C[C@H](N)CCCc1cc(-c2cc3cn(-c4ccc(CN(C)CCCNC(=N)N)cc4)c(=O)nc3[nH]2)cc(C(F)(F)F)c1 [Compound 339] |  | + (a “+” indicates that the compound has an MIC value of 16 micrograms/ml or less) |
| CC(N)CCCc1cc(CC(F)(F)F)cc(-c2cc3cn(-c4ccc(C(C)NCCCNC(=N)N)cc4)c(=O)nc3[nH]2)c1 (stereo not shown) [Compound 340] |  | + (a “+” indicates that the compound has an MIC value of 16 micrograms/ml or less) |
| CC[C@H](N)CCCc1cc(Cl)c(F)c(-c2cc3cn(-c4ccc(CNCCCNC(=N)N)cc4)c(=O)nc3[nH]2)c1 [Compound 341] |  | + (a “+” indicates that the compound has an MIC value of 16 micrograms/ml or less) |
| N=C(N)NCCCNCc1ccc(-n2cc3cc(-c4cc(CCC[C@@H](N)CO)cc(Cl)c4F)[nH]c3nc2=O)cc1 [Compound 342] |  | + (a “+” indicates that the compound has an MIC value of 16 micrograms/ml or less) |
| CC(N)CC=Cc1cc(Cl)c(F)c(-c2cc3cn(-c4ccc(C(C)NCCCNC(=N)N)cc4)c(=O)nc3[nH]2)c1 (stereo not shown) [Compound 343] |  | + (a “+” indicates that the compound has an MIC value of 16 micrograms/ml or less) |
| C[C@H](N)COCc1cc(SC(F)(F)F)cc(-c2cc3cn(-c4ccc(CNCCCNC(=N)N)cc4)c(=O)nc3[nH]2)c1 [Compound 344] |  | + (a “+” indicates that the compound has an MIC value of 16 micrograms/ml or less) |
| CC(N)COCc1cc(SC(F)(F)F)cc(-c2cc3cn(-c4ccc(C(C)NCCCNC(=N)N)cc4)c(=O)nc3[nH]2)c1 (stereo not shown) [Compound 345] |  | + (a “+” indicates that the compound has an MIC value of 16 micrograms/ml or less) |
| CC(N)CCCc1cc(Cl)c(F)c(-c2cc3cn(-c4ccc(C(C)NCCCNC(N)=NCC5CC5)cc4)c(=O)nc3[nH]2)c1 (stereo not shown) [Compound 346] |  | + (a “+” indicates that the compound has an MIC value of 16 micrograms/ml or less) |

| SMILES | E. coli ATCC25922 MIC [1] | E. coli ATCC25922 MIC [2] |
| --- | --- | --- |
| CC(N)CCCc1cc(Cl)c(F)c(-c2cc3cn(-c4ccc(C(C)NCCCNC(N)=NCC5(C)COC5)cc4)c(=O)nc3[nH]2)c1 (stereo not shown) [Compound 347] |  | + (a “+” indicates that the compound has an MIC value of 16 micrograms/ml or less) |
| CN=C(N)NCCCNC(C)c1ccc(-n2cc3cc(-c4cc(CCCC(C)N)cc(Cl)c4F)[nH]c3nc2=O)cc1 (stereo not shown) [Compound 348] |  | + (a “+” indicates that the compound has an MIC value of 16 micrograms/ml or less) |
| N=C(N)NCCCNCc1ccc(-n2cc3cc(-c4cc(CC5CC(CN)C5)cc(C(F)(F)F)c4)[nH]c3nc2=O)cc1 (stereo not shown) [Compound 349] |  | + (a “+” indicates that the compound has an MIC value of 16 micrograms/ml or less) |
| CC(NCCCNC(=N)N)c1ccc(-n2cc3cc(-c4cc(CC5CC(CN)C5)cc(C(F)(F)F)c4)[nH]c3nc2=O)cc1 (stereo not shown) [Compound 350] |  | + (a “+” indicates that the compound has an MIC value of 16 micrograms/ml or less) |
| C[C@H](N)c1ccc(-n2cc3cc(-c4cc(CCC5(CN)CC5)cc(C(F)(F)F)c4)[nH]c3nc2=O)cc1 [Compound 354] |  | − (a “−” indicates that the compound has an MIC value greater than 16 micrograms/ml) |
| C[C@H](N)CCCc1cc(OC(F)(F)F)cc(-c2cc3cn(-c4ccc(CN)cc4)c(=O)nc3[nH]2)c1 [Compound 355] |  | − (a “−” indicates that the compound has an MIC value greater than 16 micrograms/ml) |
| CC(N)CCCc1cc(OC(F)(F)F)cc(-c2cc3cn(-c4ccc(C(C)N)cc4)c(=O)nc3[nH]2)c1 (stereo not shown) [Compound 356] |  | − (a “−” indicates that the compound has an MIC value greater than 16 micrograms/ml) |
| NCc1ccc(-n2cc3cc(-c4cc(CCC5(CN)CC5)cc(SC(F)(F)F)c4)[nH]c3nc2=O)cc1 [Compound 357] |  | − (a “−” indicates that the compound has an MIC value greater than 16 micrograms/ml) |
| C[C@H](N)c1ccc(-n2cc3cc(-c4cc(CCC5(CN)CC5)cc(SC(F)(F)F)c4)[nH]c3nc2=O)cc1 [Compound 358] |  | − (a “−” indicates that the compound has an MIC value greater than 16 micrograms/ml) |
| CCN=C(N)NCCCNC(C)c1ccc(-n2cc3cc(-c4cc(CCCC(C)N)cc(Cl)c4F)[nH]c3nc2=O)cc1 (stereo not shown) [Compound 362] |  | + (a “+” indicates that the compound has an MIC value of 16 micrograms/ml or less) |
| CC(N)CCCc1cc(Cl)c(F)c(-c2cc3cn(-c4ccc(C(C)NCCCNC(N)=NC(C)C)cc4)c(=O)nc3[nH]2)c1 (stereo not shown) [Compound 364] |  | + (a “+” indicates that the compound has an MIC value of 16 micrograms/ml or less) |
| CC(N)CCCc1cc(-c2cc3cn(-c4ccc(CNCCCCC(=N)N)cc4)c(=O)nc3[nH]2)cc(C(F)(F)F)c1 (stereo not shown) [Compound 365] |  | − (a “−” indicates that the compound has an MIC value greater than 16 micrograms/ml) |
| CC(N)CCCc1cc(-c2cc3cn(-c4ccc(CN5CCCCC5=N)cc4)c(=O)nc3[nH]2)cc(C(F)(F)F)c1 (stereo not shown) [Compound 366] |  | − (a “−” indicates that the compound has an MIC value greater than 16 micrograms/ml) |
| CC(N)CCCc1cc(Cl)c(F)c(-c2cc3cn(-c4ccc(C(C)NCCCNC(N)=NC5CCC5)cc4)c(=O)nc3[nH]2)c1 (stereo not shown) [Compound 368] |  | + (a “+” indicates that the compound has an MIC value of 16 micrograms/ml or less) |
| CC(N)CCCc1cccc(-c2cc3cn(-c4ccc(C(C)NCCCNC(=N)N)cc4)c(=O)nc3[nH]2)n1 (stereo not shown) [Compound 369] |  | + (a “+” indicates that the compound has an MIC value of 16 micrograms/ml or less) |
| CC(N)CCCc1cccc(-c2cc3cn(-c4ccc(CNCCCNC(=N)N)cc4)c(=O)nc3[nH]2)n1 (stereo not shown) [Compound 370] |  | + (a “+” indicates that the compound has an MIC value of 16 micrograms/ml or less) |
| C[C@H](N)c1ccc(-n2cc3cc(-c4cc(CCCC(C)(C)N)cc(SC(F)(F)F)c4)[nH]c3nc2=O)cc1 [Compound 371] |  | − (a “−” indicates that the compound has an MIC value greater than 16 micrograms/ml) |
| CC(C)(N)CCCc1cc(Cl)c(F)c(-c2cc3cn(-c4ccc(CN)cc4)c(=O)nc3[nH]2)c1 [Compound 372] |  | − (a “−” indicates that the compound has an MIC value greater than 16 micrograms/ml) |
| C[C@H](N)c1ccc(-n2cc3cc(-c4cc(CCCC(C)(C)N)cc(Cl)c4F)[nH]c3nc2=O)cc1 [Compound 373] |  | − (a “−” indicates that the compound has an MIC value greater than 16 micrograms/ml) |
| CCC(N)CCCc1cc(Cl)c(F)c(-c2cc3cn(-c4ccc(C(C)NCCCNC(=N)N)cc4)c(=O)nc3[nH]2)c1 (stereo not shown) [Compound 374] |  | + (a “+” indicates that the compound has an MIC value of 16 micrograms/ml or less) |
| CC(N)COCc1cc(Cl)c(F)c(-c2cc3cn(-c4ccc(CNCCCNC(=N)N)cc4)c(=O)nc3[nH]2)c1 (stereo not shown) [Compound 375] |  | + (a “+” indicates that the compound has an MIC value of 16 micrograms/ml or less) |
